Source: patent publication US6310090A, “Process and product for enhancing immune response in companion animals using a combination of antioxidants” (priority 2000, dated 2001)
Each block holds one compound with its values, some of them ahead of it.

How the values were obtained:
mouse splenocytes = conditions: cited from earlier work
immune system = experiment: summary of the results from each of the studies (Table 1); format: in vivo, dog
cancer = conditions: supplementation alone, compared with diets high in antioxidants; cited from earlier work
lymphocyte [1] = experiment: lymphocyte mitogenic response to ConA and PHA, vitamin E diets; format: cell-based, dog (Beagle); conditions: 8 weeks
Description: Twenty young (mean age 2 years) and 20 old (mean age 9.2 years) Beagles were fed a standard commercial chicken/corn-based diet formulated to contain 27 IU/kg diet of vitamin E (NRC recommendation) (control diet) for 1 month prior to the commencement of the experiment in order to stabilize the dogs' vitamin E levels. Young and old dogs were then randomly assigned to the diets containing 27 IU/kg diet of vitamin E or 280 IU/kg diet of vitamin E for 8 weeks. Blood was collected before and after 8 weeks of dietary treatments for measurement of plasma vitamin E levels and assessment of lymphocyte mitogenic response to ConA (concanavalin A) and PHA (phytohemagglutinin).

lymphocyte [2] = conditions: rats; cited from earlier work
[3] = system: chemical-induced carcinogenesis; conditions: mice; cited from earlier work
IL-2 = IL-2 production, β-carotene feeding; format: cell-based, dog (Beagle)
CD8 cells = experiment: lymphocyte populations, β-carotene feeding; format: in vivo, dog (Beagle); conditions: 20 mg, weeks 2 and 4
Procedure: (§1) The following parameters were assessed in all the animals or in the peripheral blood lymphocytes: (1) delayed-type hypersensitivity (DTH) against PHA (nonspecific immunity) and vaccine (specific immunity), (2) lymphocyte proliferation, (3) lymphocyte populations and (4) immunoglobulins (Ig).

CD4+ cells = experiment: lymphocyte populations, β-carotene feeding; format: in vivo, dog (Beagle); conditions: 20 or 50 mg, week 8, compared to controls
Procedure: as §1

[4] = system: vaccine (specific immunity); experiment: delayed-type hypersensitivity (DTH) against vaccine, β-carotene feeding; format: in vivo, dog (Beagle); conditions: 20 or 50 mg of β-carotene
Procedure: as §1

IgG = experiment: immunoglobulins, β-carotene feeding; format: in vivo, dog (Beagle); conditions: as early as 1 week after supplementation
Procedure: (§2) In a fourth study, female Beagles (4 to 5 mo old) were supplemented daily with 0, 25, 50 or 100 mg of β-carotene to study the role of dietary β-carotene in enhancing the cell-mediated and humoral immune systems of the dog. The following parameters were assessed in all the animals or in the peripheral blood lymphocytes: (1) delayed-type hypersensitivity (DTH) against PHA (nonspecific immunity) and vaccine (specific immunity), (2) lymphocyte proliferation, (3) lymphocyte populations and (4) immunoglobulins (Ig).

IgM = experiment: immunoglobulins, β-carotene feeding; format: in vivo, dog (Beagle); conditions: as early as 1 week after supplementation
Procedure: as §2

immunoglobulins (Ig) = experiment: immunoglobulins / antibody levels in the blood, β-carotene feeding; format: in vivo, dog (Beagle)
Procedure: FIG. 1 is a graph of antibody concentration in dogs (mg/dl) versus mg/kg diet of beta-carotene; and
as §1

[5] = plasma β-carotene on daily feeding for 7 consecutive days; parameters: species or system dog (Beagle); conditions: dog, in vivo
Procedure: (§3) Female Beagle dogs (18 to 19 months of age; 7 to 9 kg body weight) were fed a basal diet (The lams Co., Lewisburg, OH) which met or exceeded the requirement for all essential nutrients. Animals were housed indoors in light- (14 hr light; 10 hr dark) and temperature-controlled rooms. A test was conducted to study the uptake profile of β-carotene after a single oral dose of β-carotene.
(§4) Blood plasma was separated by centrifugation and β-carotene concentrations were analyzed using high performance liquid chromatography (HPLC) as follows. All procedures were conducted under dim light. Duplicate aliquots of plasma, each leukocyte homogenate, and each leukocyte subcellular fraction were extracted with a 1:1 mixture of diethyl ether and petroleum ether in the presence of BHT. The ether phase was removed and dried under a stream of nitrogen. The residue was reconstituted in mobile phase for the HPLC determination of β-carotene. Samples (50 μl) were injected onto a 5 μm spherical C-18 reverse-phase column (3.9×150 mm; Resolve) and eluted with a 47:47:6 (v/v/v) mixture of acetonitrile, methanol, and chloroform at a flow rate of 1.0 ml/min.
In a second study, the dogs (n=6/treatment) were fed daily at 0800 hr for 7 consecutive days with 0, 12.5, 25, 50 or 100 mg β-carotene. […] Plasma was isolated and analyzed for concentrations of β-carotene.

blood lymphocytes = system: blood lymphocytes; parameters: species or system dog (Beagle); conditions: dog, in vivo
Procedure: as §3, §4
(§5) A third study was designed to study the uptake of β-carotene in dogs by blood lymphocytes. The dogs (n=8/treatment) were fed 0, 50 or 100 mg of β-carotene daily for 30 days. Blood was sampled from all dogs via the jugular vein on days 10, 20 and 30. Blood lymphocytes and neutrophils were separated by density gradient centrifugation. Cell numbers were enumerated. Lymphocytes and neutrophils were resuspended in PBS containing 3% sodium ascorbate as an antioxidant. An aliquot of the cell suspension was sonicated for 30 seconds to disrupt the cells. The leukocyte homogenates were extracted for HPLC analysis of β-carotene.
(§6) On day 30, a larger aliquot of blood was taken and leukocyte suspensions prepared as described above for subsequent subcellular fractionation. Cells were disrupted by sonication for 20 seconds in 5 volumes of 0.25 M sucrose. Sodium ascorbate was added as the antioxidant. The homogenate was centrifuged (600×g for 10 min at 4° C.) and the nuclear pellet separated from the supernatant. The postnuclear supernatant was centrifuged (17,300×g for 20 min at 4° C.) to separate the mitochondrial fraction. The postmitochondrial supernatant was centrifuged (102,000×g for 60 min at 4° C.) to separate the microsomal from the cytosolic fraction. Each subcellular fraction was analyzed for β-carotene content by HPLC.

[6] = format: in vivo, dog (Beagle)
Procedure: as §2

blood neutrophils = experiment: uptake of β-carotene by blood neutrophils and their subcellular fractions; format: in vivo, dog (Beagle); conditions: dog, in vivo
Procedure: as §3, §4, §5, §6

[7] = as above; format: in vivo, dog (Beagle); conditions: dog, blood neutrophils, po; 50 or 100 mg daily; read-out: time of maximal uptake by blood neutrophils
Procedure: as §3, §4, §5, §6

[8] = uptake profile of plasma β-carotene after a single oral dose; parameters: species or system dog (Beagle); conditions: dog, in vivo
Procedure: as §3
To study the uptake of oral β-carotene in dogs given a single dose of β-carotene orally, dogs (n=6/treatment) were given once perorally 0, 50, 100 or 200 mg of β-carotene (10% cold water dissolvable; BASF Corp., Ludwigshafen, Germany). The appropriate dose of β-carotene was dissolved in 5 ml of water fed orally by using a feeding syringe. In order to establish appropriate sampling times, two dogs were used in a preliminary study. These dogs were fed once with 50 mg β-carotene and blood sampled at 0 (immediately prior to β-carotene feeding), 3, 6, 9, 12, 15, 18, 21 and 24 hr.
as §4

[9] = system: PHA (nonspecific immunity); experiment: delayed-type hypersensitivity (DTH) against PHA, β-carotene feeding; format: in vivo, dog (Beagle); conditions: 50 mg of β-carotene
Procedure: as §2

lymphocyte [10] = experiment: mitogen-induced lymphocyte blastogenesis, β-carotene feeding; format: cell-based, dog (Beagle)
Procedure: as §2

[11] = daily β-carotene supplementation

Compound: CC1=C(/C=C/C(C)=C/C=C/C(C)=C/C=C/C=C(C)/C=C/C=C(C)/C=C/C2=C(C)C(=O)[C@@H](O)CC2(C)C)C(C)(C)C[C@H](O)C1=O [Astaxanthin, astaxanthin]
ex vivo antibody response of mouse splenocytes to T-dependent antigens (mouse splenocytes): increase ex vivo antibody response

Compound: vitamin E
Optimize immune cell activity (T-cells) (immune system; Table 1, Vitamin E column): .check mark. | magnitude of protection (cancer): do not provide the same magnitude of protection | ConA and PHA-stimulated proliferation (lymphocyte [1]; dogs supplemented with 280 IU/kg diet): No such decrease was observed | mitogen-stimulated lymphocyte proliferation (lymphocyte [1]; old dogs, 27 or 280 IU/kg diet): did not show a significant change | ConA and PHA-stimulated proliferation (lymphocyte [1]; young dogs, 27 IU/kg diet): significant decrease

Compound: CC1=C(/C=C/C(C)=C/C=C/C(C)=C/C=C/C=C(C)/C=C/C=C(C)/C=C/C2=C(C)C(=O)CCC2(C)C)C(C)(C)CCC1=O [canthaxanthin]
lymphocyte proliferation (lymphocyte [2]): increase lymphocyte proliferation in rats | chemical-induced carcinogenesis [3]: prevent chemical-induced carcinogenesis in mice

plasma β-carotene after the last dose, higher than after the first dose [5]: 2.5-4 fold | share of total β-carotene in lymphocytes, cytosol (blood lymphocytes): 52-62% | share of total β-carotene in lymphocytes, microsomes (blood lymphocytes): 16-23% | share of total β-carotene in lymphocytes, mitochondria (blood lymphocytes): 14-17% | share of total β-carotene in lymphocytes, nuclei (blood lymphocytes): 6-8% | β-carotene concentrations in lymphocytes, 50 versus 100 mg (blood lymphocytes): no significant treatment difference | dose effect on uptake by blood neutrophils (blood neutrophils): No significant dose effect was observed | β-carotene in the cytosolic fraction of blood neutrophils (blood neutrophils): 61-68 | β-carotene in the nuclei of blood neutrophils (blood neutrophils): not detected | Tmax [7]: ≤ 240 h | concentration of β-carotene in plasma of dogs, lower than in cats [8]: 10-16 fold | peak concentrations of blood β-carotene, dogs versus cats ([8]; po): occurred earlier in dogs than in cats | Tmax ([8]; po, preliminary study, two dogs, 50 mg once orally, plasma, read-out: time of peak concentrations of β-carotene): 3 to 6 h
Compound: CC1=C(/C=C/C(C)=C/C=C/C(C)=C/C=C/C=C(C)/C=C/C=C(C)/C=C/C2=C(C)CCCC2(C)C)C(C)(C)CCC1 [β-carotene]
IL-2 production (IL-2): did not influence | population of CD8 cells (CD8 cells): elevated population of CD8 cells | population of CD4+ cells (CD4+ cells): elevated population of CD4+ cells | DTH response to the vaccine [4]: significantly higher DTH response | concentration of IgG (IgG): increased significantly | concentration of total IgG (IgG; total IgG): increased significantly | concentration of IgM (IgM): increased significantly | Increase antibody levels in the blood (immune system; Table 1): .check mark. | Optimize types of cells present in the blood (immune system; Table 1): .check mark. | Optimize vaccine recognition by the dog (immune system; Table 1): .check mark. | ex vivo antibody response of mouse splenocytes to T-dependent antigens (mouse splenocytes): increase ex vivo antibody response | increases in Ig (immunoglobulins (Ig); 0 to 20 mg of β-carotene): dose dependent | antibody response for both Ig (immunoglobulins (Ig); 20 mg of β-carotene): consistently had the greatest antibody response | increase in antibody levels in the blood (immunoglobulins (Ig); FIG. 1, addition of β-carotene to the diet): 20% | increases in Ig (immunoglobulins (Ig); highest level, 50 mg): did not produce a further increase | plasma retinol [6, 11]: did not influence | plasma α-tocopherol [6, 11]: did not influence | plasma β-carotene concentrations ([6]; dog, in vivo): increased plasma β-carotene concentrations in a dose-dependent manner | DTH response to PHA challenge [9]: greatest response | mitogen-induced lymphocyte blastogenesis (lymphocyte [10]): did not influence | magnitude of protection (cancer): do not provide the same magnitude of protection
